Here are results for four compounds from patent publication US4448730A, “Hydroxybenzohydroxamic acids, benzamides and esters and related compounds as ribonucleotide reductase inhibitors” (priority 1982, dated 1984).

One data set deals with T1, ribonucleotide reductase (Rattus norvegicus, UniProt Q4KLN6).
T1 construct: partially purified from Novikoff hepatoma; from tissue; host or cells: Novikoff hepatoma (rat tumour), partially purified enzyme
T1 sequence (Q4KLN6 1-390): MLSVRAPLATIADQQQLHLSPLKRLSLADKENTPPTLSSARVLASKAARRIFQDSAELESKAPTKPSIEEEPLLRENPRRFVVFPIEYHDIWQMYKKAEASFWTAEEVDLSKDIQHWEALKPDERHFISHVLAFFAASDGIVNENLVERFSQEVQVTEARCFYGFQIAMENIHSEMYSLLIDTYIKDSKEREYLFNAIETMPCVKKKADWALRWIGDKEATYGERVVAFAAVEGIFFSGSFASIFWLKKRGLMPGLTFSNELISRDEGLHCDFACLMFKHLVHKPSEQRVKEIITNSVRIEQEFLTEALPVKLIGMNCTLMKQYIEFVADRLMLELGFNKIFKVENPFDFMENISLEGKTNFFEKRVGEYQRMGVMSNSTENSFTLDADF
The data set is described as follows: Inhibition of ribonucleotide reductase (conversion of CDP to dCDP), enzyme partially purified from Novikoff hepatoma. The format is biochemical. The source says: (§1) Table 2 gives ribonucleotide reductase data for certain compounds of formula I. In the table, column 1 gives the substitution pattern in the benzene ring, column 2, the R^1 group, column 3, the ID50 (inhibitory dose in micromolar concentration which inhibits ribonucleotide reductase by 50%), column 4, the average percent (± standard error) increase in the life span (ILS) of 8 treated mice inoculated with L1210 leukemia compared with 8 control mice also inoculated with L1210. The daily dose level of the drug which was administered for 8 days is indicated in column 5. Table 3 gives the relative potency of the compounds represented by formula I above as inhibitors of ribonucleotide reductase compared to hydroxyurea whose potency was given an arbitrary value of 1.0. In table 3, column 1 gives the name of the compound and column 2 the relative inhibitory potency of each of the compounds of column 1.
In the above determination of ID50 's in Table 3, ribonucleotide reductase is partially purified from Novikoff hepatoma by a procedure similar to that set forth by Elford et al. J. Biol. Chem. 245, 5228 (1970). The activity of the enzyme was measured by a slightly modified assay procedure originally developed by Reichard et al. id, 236, 1150 […]. This procedure measures the conversion of CDP to dCDP. The assay mixture (0.34 ml.) contains 3 μCi of [^3 H] CDP (specific activity […]), 3.3 μmole ATP, 5.9 μmoles magnesium chloride, 8.8 μmoles Hepes buffer at pH=7.5, 15 μmoles dithiothreitol and enzyme protein between 0.4 and 1.3 mg. Incubation was provided for forty minutes at 30° C. Ion exchange chromatography employing Dowex 50 (H^+) resin is used to separate the product from the substrate. The inhibitors were dissolved in water and a mixture of water and up to 1 % ethanol or 2% dimethylsulfoxide, neither one of which inhibited the enzyme at these concentrations. Each inhibitor was tested at a minimum of three concentrations and the active compounds reassayed at least one additional time. ID50 's in μmoles were estimated from graphs summarizing results for each compound.

The next data set has as its system L1210 leukemia. The data set can be described thus: L1210 leukemia in mice, increase in life span (Table 2). Conditions: Mus musculus, L1210, 192 h; 600 mg/kg daily for 8 days; read-out: ILS, average percent (± standard error) increase in life span. The format is in vivo.
From the text: As stated above, the compounds represented by formula I above have the ability to inhibit ribonucleotide reductase, an enzyme involved in the reductive conversion of ribonucleotides to deoxyribonucleotides. This enzymatic reaction is a rate controlling step in the biosynthetic pathway leading to DNA and cell replication. In general, the ribonucleotide reductase level is closely correlated with cellular replication.
as §1

Data set [1] concerns L-1210 Leukemia. The format is in vivo, mice. Conditions: once or twice daily for 9-10 days.
Protocol: (§3) All compounds were administered once or twice daily for 9-10 days starting 24 hours after inoculation with the tumor.
For another data set, the system named is Lewis Lung. The data set can be described thus: Activity vs. Lewis Lung (Table 5). Conditions: once or twice daily for 9-10 days. The format is in vivo, mice.
A further data set has as its system CA-755 adenocarcinoma. The data set can be described thus: Activity vs. CA-755 adenocarcinoma (Table 7). The format is in vivo, mice. To be noted: once or twice daily for 9-10 days.
A further data set concerns P388 Leukemia. The data set is described as follows: Activity vs. P388 Leukemia (Table 8). To be noted: once or twice daily for 9-10 days. The format is in vivo, mice.
Another data set relates to CX-1 colon xenograft. The data set can be described thus: Activity against CX-1 colon xenograft. The format is in vivo. On the procedure: In addition, the compound 3,4-dihydroxybenzenehydroxamic acid was active against CX-1 colon xenograft using the following protocol:
0% tumor inhibition at 800 mg/kg dose level every fourth day,
3,4,5-trihydroxybenzohydroxamic acid gave the following results against the same tumor using the same protocol.

The subject of another data set is CD8F mammary tumor. The data set is described as follows: Inhibition of growth of CD8F mammary tumor. The format is in vivo. The source says: (§2) The same two compounds were effective in inhibiting the growth of the following transplanted tumors--B16 melanoma, M-1 human breast xenograft, LX-1 human lung xenograft, CD8F mammary tumor and colon 38 tumor--as follows: […]

The test system of a further data set is colon 38 tumor. The data set is described as follows: Inhibition of growth of colon tumor C8 (colon 38). The format is in vivo, mice.
From the text: as §2

The next data set deals with B16 melanoma. The data set is described as follows: B16 melanoma, increase in survival. The format is in vivo, mice.
From the text: as §2

Data set [2] concerns LX-1 human lung xenograft. The data set can be described thus: Inhibition of growth of LX-1 human lung xenograft. The format is in vivo, mice.
From the text: as §2

Data set [3] has as its system L-1210 Leukemia. The format is in vivo, mice. The method, then: In a series of studies against L-1210 leukemia, in addition to those studies set forth in Table 2 and 4, 3,4-dihydroxybenzohydroxamic acid gave the following increases in survival times at the dose levels specified. Drug was administered daily for nine days.
Similar data for 3,4,5-trihydroxybenzohydroxamic acid are as follows: […]

Data set [4] has as its system L-1210 Leukemia. The format is in vivo, mice. The source says:
The above data clearly show the enhanced anti-tumor activity of trihydroxybenzohydroxamic acid where the hydroxy groups are vicinal but no hydroxyl is ortho. Similar data are available for the vicinal dihydroxybenzohydroxamic acids with and without an ortho-hydroxy substituent in an L-1210 leukemic test in mice as follows: […]
The source holds these as a separate data set.

In data set [5] the test system is L-1210 Leukemia. The data set is described as follows: Direct side-by-side comparison with L-1210 leukemia. The format is in vivo, mice. The source says: In a direct side-by-side comparison with L-1210 leukemia, the following results were obtained.
The next data set has as its system L-5563 lymphoma. The data set can be described thus: Activity vs. L-5563 lymphoma (Table 6). To be noted: 200 mg/kg; once or twice daily for 9-10 days.
For data set [6], the system named is RNA and protein synthesis in Ehrlich ascites tumor cells. To be noted: Gale and Hynes 1968; cited from earlier work.
The subject of data set [7] is DNA synthesis in Ehrlich ascites tumor cells. Conditions: Gale and Hynes 1968; in vitro; cited from earlier work.
The subject of data set [8] is DNA, RNA and protein synthesis in cells. To be noted: cited from earlier work.

The ILS is how much longer treated animals lived than controls. For orientation: % inhibition means the drop in the measured response relative to a control, in per cent. Read a low % inhibition as little suppression. Broadly, the inhibition is how much of the control response was suppressed. Lower therefore signals a weak effect.

Values joined by “and” are separate entries in the source; they are usually repeats but may differ in a detail not shown here. Identical values can stand only once. Like-named read-outs stand apart in the source and are kept apart here.

Protocol for CA-755 adenocarcinoma: as §3
Protocol for L-5563 lymphoma: as §3
Protocol for Lewis Lung: as §3
Protocol for P388 Leukemia: as §3

On to `O=C(NO)c1ccc(O)c(O)c1` [3,4-dihydroxybenzohydroxamic acid], for which, at ribonucleotide reductase (CDP to dCDP, 40 min at 30° C, pH 7.5, enzyme from Novikoff hepatoma, read-out: ID50 (inhibitory dose which inhibits ribonucleotide reductase by 50%)), the IC50 turned out to be 30 µM. In addition, the “Inhibitory Potency for ribonucleotide reductase” value at ribonucleotide reductase (relative to hydroxyurea, given an arbitrary value of 1.0) is 17. Moreover, the ILS at 600 mg/kg in the data set with L1210 leukemia was found to be 103 ± 15%. Also, the survivors with L-1210 Leukemia [1] (200 mg/kg) was determined as 4 survivors. Besides, the “% increase in survival time” value in the data set on L-1210 Leukemia [1] (225 mg/kg) amounted to 65%; in the data set with L-1210 Leukemia [4] (100 mg/kg) it was 25%; in the data set on L-1210 Leukemia [4] (300 mg/kg), 56%; with L-1210 Leukemia [4] (453 mg/kg), 125%; with L-1210 Leukemia [4] (500 mg/kg), 84%; with L-1210 Leukemia [4] (543 mg/kg), 77%. Further, the “% increase in survival time” value with L-1210 Leukemia [4] (600 mg/kg) was 94% and 103%; in the data set with L-1210 Leukemia [4] (643 mg/kg), 65%; in the data set on L-1210 Leukemia [5] (250 mg/kg) it was 32%; in the data set on L-1210 Leukemia [5] (500 mg/kg), 70%. Further, the “% tumor inhibition” value was 14% in the data set with Lewis Lung (200 mg/kg) and 31-58% in the data set on Lewis Lung (400 mg/kg). Moreover, the “% inhibition” value in the data set on CA-755 adenocarcinoma (100 mg/kg) is 16%; with CA-755 adenocarcinoma (200 mg/kg), 25% and 36%; with CA-755 adenocarcinoma (300 mg/kg), 52%; in the data set with L-5563 lymphoma, 24%. Moreover, the “toxic (in column % inhibition)” value with CA-755 adenocarcinoma (300 mg/kg) was “toxic”. Further, the “% Prolongation” value with P388 Leukemia (200 mg/kg) stood at 51%; in the data set on P388 Leukemia (225 mg/kg), 89%. The tumor inhibition in the data set with CX-1 colon xenograft (200 mg/kg every fourth day) was found to be 48%; in the data set on CX-1 colon xenograft (400 mg/kg every fourth day) it was 14%; with CX-1 colon xenograft (800 mg/kg every fourth day), 0%. For the same compound, in the data set on CX-1 colon xenograft (every fourth day), the “activity against CX-1 colon xenograft (in words)” value is on record as “active”. The inhibition with CD8F mammary tumor (300 mg/kg) is 52%; in the data set with CD8F mammary tumor (600 mg/kg) it was 11%; in the data set on colon 38 tumor (50 mg/kg), 12%; with colon 38 tumor (100 mg/kg), 8%; in the data set with colon 38 tumor (200 mg/kg) it was 15%; in the data set on colon 38 tumor (400 mg/kg), 52%. Moreover, the inhibition in data set [2] (200 mg/kg) came out at 0%; in data set [2] (400 mg/kg), 26%; in [2] (800 mg/kg), 27%. The figures for the increase in survival in the data set with B16 melanoma (200 mg/kg) and in the data set on B16 melanoma (400 mg/kg) were 24-25% and 41%, respectively. Moreover, the “% increase in survival” value with L-1210 Leukemia [3] (25 mg/kg daily for nine days) is on record as 15%; with L-1210 Leukemia [3] (50 mg/kg daily for nine days), 25%; in the data set with L-1210 Leukemia [3] (100 mg/kg daily for nine days), 37%; in the data set on L-1210 Leukemia [3] (164 mg/kg daily for nine days) it was 21%; in the data set on L-1210 Leukemia [3] (196 mg/kg daily for nine days), 52%; in the data set with L-1210 Leukemia [3] (200 mg/kg daily for nine days), 67%. In addition, the “% increase in survival” value with L-1210 Leukemia [3] (235 mg/kg daily for nine days) is 39%; in the data set on L-1210 Leukemia [3] (245 mg/kg daily for nine days) it was 45% and 68%; in the data set with L-1210 Leukemia [3] (307 mg/kg daily for nine days), 67% and 76%; in the data set with L-1210 Leukemia [3] (336 mg/kg daily for nine days) it was 55%; in the data set on L-1210 Leukemia [3] (384 mg/kg daily for nine days) it was 62% and 85%; in the data set on L-1210 Leukemia [3] (400 mg/kg daily for nine days), 67%. The “% increase in survival” value in the data set on L-1210 Leukemia [3] (480 mg/kg daily for nine days) was 106% and 87% and 67%; in the data set with L-1210 Leukemia [3] (600 mg/kg daily for nine days), 54% and 64%.
On to `O=C(NO)c1ccccc1` [Benzohydroxamic acid], for which, in [6], the “inhibition of RNA synthesis (in words)” value is “found to inhibit RNA synthesis”.
Take `O=C(NO)c1ccccc1O` [salicylhydroxamic acid]: the “inhibition of / selectivity against DNA synthesis (in words)” value in data set [7] is recorded as “selective inhibition of DNA synthesis”. Further, the “inhibition of DNA synthesis (in words)” value in data set [8] (Gale 1966) is recorded as “selective inhibition of DNA synthesis”. Besides, the “depression of RNA and protein synthesis (in words)” value in data set [8] (cells preincubated for up to two hours) was “only a slight depression of RNA and protein synthesis”.
As for `Nc1cccc(C(=O)NO)c1` [3-Aminobenzohydroxamic acid], the “inhibition of / selectivity against DNA synthesis (in words)” value in data set [7] is “completely inhibiting DNA synthesis”. Also, in [6], the “depression of RNA and protein synthesis” value is recorded as 50%.
